Source: patent US4440943A, “Phenoxiodinin-5-ium antimicrobial compounds” (The Dow Chemical Company, priority 1982, dated 1984)
Structures can show the parent of a compound that is named as a salt. Where two headings read alike, the source gives them in different places.

Columns and labels:
Assay type in all cases: cell-based
Staphylococcus aureus = assay: Agar dilution MIC vs Staphylococcus aureus (trypticase soy agar); details: first screened at 500 ppm; for MIC: read-out: Minimum inhibitory concentration, Sa
Description: (§1) A tube containing 30 ml of trypticase soy agar was melted and warmed to 45° C. The test compound was added to the tube at a concentration of 0.05% (500 ppm). The mixture was stirred and poured into plates to harden. When hardened, the plates were inoculated with various aerobic and anaerobic organisms. The aerobic plates were incubated at 37° C. for 24 hours and then read for bacterial growth. The same plates were again incubated at 30° C. for an additional 48 hours at which point they were checked for yeast and fungal growth. The anaerobic plates were incubated at 37° C. in an anaerobic chamber and read at 48 hours.
(§2) After the initial readings, compounds showing sufficient activity were re-tested at various concentrations to determine the minimum inhibitory concentration (MIC) of the compounds of the invention against various bacteria and fungi.

Streptococcus mutans [1] = assay: Agar dilution MIC vs Streptococcus mutans (trypticase soy agar); details: first screened at 500 ppm; for MIC: read-out: Minimum inhibitory concentration, Sm
Description: as §1, §2

[2] = system: Streptococcus mutans (ATCC 10449); assay: MIC and MBC vs Streptococcus mutans, Todd Hewitt broth, standard dilution; details: for MBC: read-out: MBC (minimum bactericidal concentration)
Description: In another procedure, the minimum inhibitory concentration (MIC) and minimum bactericidal concentration (MBC) were determined in ppm for various compounds of the invention against the bacteria, Streptococcus mutans (ATCC 10449). The testing was performed using Todd Hewitt broth and standard dilution techniques.

Bacillus subtilis = assay: Agar dilution MIC vs Bacillus subtilis (trypticase soy agar); details: first screened at 500 ppm; for MIC: read-out: Minimum inhibitory concentration, Bs
Description: as §1, §2

Candida pelliculosa = assay: Agar dilution MIC vs Candida pelliculosa (trypticase soy agar); details: first screened at 500 ppm
Description: as §1, §2

Salmonella typhosa = assay: Agar dilution MIC vs Salmonella typhosa (trypticase soy agar); details: for Minimum inhibitory concentration, St: Salmonella typhosa, first screened at 500 ppm; for MIC: Salmonella enterica, TYPHOSA, read-out: Minimum inhibitory concentration, St, Salmonella typhosa, first screened at 500 ppm
Description: as §1, §2

Aspergillus fumigatus = assay: Agar dilution MIC vs Aspergillus fumigatus (trypticase soy agar); details: first screened at 500 ppm; for MIC: read-out: Minimum inhibitory concentration, Af
Description: as §1, §2

Aspergillus niger = assay: Agar dilution MIC vs Aspergillus niger (trypticase soy agar); details: first screened at 500 ppm; for MIC: read-out: Minimum inhibitory concentration, An
Description: as §1, §2

Streptococcus mutans [3] = assay: Acid inhibition in Streptococcus mutans (Trypticase-yeast medium with sucrose, NaOH titration); details: S. mutans, 48 hours at 37° C.; for minimal effective concentration: Streptococcus mutans, 48 h, read-out: Acid Inhibition (minimum concentration which prevented acid formation)
Description: In still another operation, the acid inhibiting property of these compounds was tested against the known acid producing organism, Streptococcus mutans. Test tubes containing Trypticase-yeast medium with sucrose were inoculated with S. mutans and incubated for 48 hours at 37° C. The tubes were then titrated with 0.1 N sodium hydroxide.

[4] = system: Trichophyton mentagrophytes; assay: Agar dilution MIC vs Trichophyton mentagrophytes (trypticase soy agar); details: first screened at 500 ppm
Description: as §1, §2

Proteus mirabilis = assay: Agar dilution MIC vs Proteus mirabilis (trypticase soy agar); details: first screened at 500 ppm; for MIC: read-out: Minimum inhibitory concentration, Pm
Description: as §1, §2

Escherichia coli = assay: Agar dilution MIC vs Escherichia coli (trypticase soy agar); details: first screened at 500 ppm; for MIC: read-out: Minimum inhibitory concentration, Ec
Description: as §1, §2

[5] = Streptococcus mutans ATCC 10449, Todd Hewitt broth
[6] = Streptococcus mutans ATCC 10449, Todd Hewitt broth, monohydrate
[7] = Streptococcus mutans, ATCC10449, Streptococcus mutans ATCC 10449, Todd Hewitt broth
[8] = Streptococcus mutans, ATCC10449, Streptococcus mutans ATCC 10449, Todd Hewitt broth, read-out: MIC
[9] = Streptococcus mutans ATCC 10449, Todd Hewitt broth, hemihydrate
[10] = Streptococcus mutans ATCC 10449, Todd Hewitt broth, dihydrate

CNS(=O)(=O)c1ccc2c(c1)[I+]c1cc(S(=O)(=O)NC)ccc1O2 [7(a), 3,7-Bis(methylaminosulfonyl)phenoxiodinin-5-ium bromide hemihydrate]
MIC (Staphylococcus aureus): 500 µg/mL

O=C(c1ccc2c(c1)[I+]c1cc(C(=O)C34CC5CC(CC(C5)C3)C4)ccc1O2)C12CC3CC(CC(C3)C1)C2 (single isomer, unassigned) [5(b)]
Minimum inhibitory concentration, Sa (Staphylococcus aureus): 0.78 PPM
Minimum inhibitory concentration, Sm (Streptococcus mutans [1]): 0.78 PPM
MBC (minimum bactericidal concentration) [2, 5]: 1.56 ppm
MIC [2, 5]: 0.78 ppm

COC(=O)c1ccc2c(c1)[I+]c1cc(C(=O)O)ccc1O2 [3(b), 3-carboxy-7-(methoxycarbonyl)-phenoxiodinin-5-ium bromide monohydrate]
Minimum inhibitory concentration, Bs (Bacillus subtilis; monohydrate): 0.5 PPM
Minimum inhibitory concentration, Cp (Candida pelliculosa): 500 PPM
Minimum inhibitory concentration, St (Salmonella typhosa; monohydrate): 5 PPM
Minimum inhibitory concentration, Af (Aspergillus fumigatus; monohydrate): 100 PPM
Minimum inhibitory concentration, An (Aspergillus niger): 500 PPM
Minimum inhibitory concentration, Sa (Staphylococcus aureus; monohydrate): 1.0 PPM
Minimum inhibitory concentration, Sm (Streptococcus mutans [1]; monohydrate): 10 PPM
Acid Inhibition (minimum concentration which prevented acid formation) (Streptococcus mutans [3]): 1.0 ppm
MBC (minimum bactericidal concentration) [2, 6]: 1.0 ppm
MIC [2, 6]: 2.0 ppm
Minimum inhibitory concentration, Tm ([4]; monohydrate): 100 PPM
Minimum inhibitory concentration, Pm (Proteus mirabilis; monohydrate): 5 PPM
Minimum inhibitory concentration, Ec (Escherichia coli; monohydrate): 5 PPM

CN(C)S(=O)(=O)c1ccc2c(c1)[I+]c1cc(S(=O)(=O)N(C)C)ccc1O2 [9(b), 3,7-Bis(dimethylaminosulfonyl)phenoxidinin-5-ium chloride]
Minimum inhibitory concentration, Bs (Bacillus subtilis): 500 PPM
Minimum inhibitory concentration, Sa (Staphylococcus aureus): 500 PPM
Acid Inhibition (minimum concentration which prevented acid formation) (Streptococcus mutans [3]): 0.03 ppm
MBC (minimum bactericidal concentration) [2, 5]: > 125 ppm
MIC [2, 5]: > 125 ppm

O=S(=O)(c1ccc2c(c1)[I+]c1cc(S(=O)(=O)N3CCOCC3)ccc1O2)N1CCOCC1 [8(a), 3,7-Bis(4-morpholinylsulfonyl)phenoxiodinin-5-ium sulfate hydrate]
minimal effective concentration (Streptococcus mutans [3]): 8 µg/mL
MBC [2, 7]: > 125 µg/mL
MIC [2, 8]: 62.5 µg/mL

CN(C)S(=O)(=O)c1ccc2c(c1)[I+]c1cc(S(=O)(=O)N(C)C)ccc1O2 [9(a), 3,7-Bis(dimethylaminosulfonyl)phenoxiodinin-5-ium bromide]
MIC (Bacillus subtilis): 500 µg/mL
MIC (Staphylococcus aureus): 500 µg/mL
Acid Inhibition (minimum concentration which prevented acid formation) (Streptococcus mutans [3]): 0.2 ppm
MBC [2, 7]: > 125 µg/mL
MIC [2, 8]: > 125 µg/mL

CN1CCN(S(=O)(=O)c2ccc3c(c2)[I+]c2cc(S(=O)(=O)N4CCN(C)CC4)ccc2O3)CC1 [4(a), 3,7-bis((4-Methyl-1-piperazinyl)sulfonyl)phenoxiodinin-5-ium bromide, hydrobromide]
MIC (Bacillus subtilis): 100 µg/mL
MIC (Salmonella typhosa): 500 µg/mL
MIC (Staphylococcus aureus): 50 µg/mL
MBC [2, 7]: ≥ 63 µg/mL
MIC [2, 8]: ≥ 63 µg/mL
MIC (Escherichia coli): 500 µg/mL

CCC(=O)c1ccc2c(c1)[I+]c1cc(C(=O)CC)ccc1O2 [2(b)]
Minimum inhibitory concentration, Bs (Bacillus subtilis): 500 PPM
Minimum inhibitory concentration, Sa (Staphylococcus aureus): 500 PPM
Acid Inhibition (minimum concentration which prevented acid formation) (Streptococcus mutans [3]): 7.8 ppm
MBC (minimum bactericidal concentration) [2, 5]: 31 ppm
MIC [2, 5]: 125 ppm

CCC(=O)c1ccc2c(c1)[I+]c1cc(C(=O)CC)ccc1O2 [2(a), 3,7-Dipropionylphenoxiodinin-5-ium chloride hemihydrate]
Minimum inhibitory concentration, Bs (Bacillus subtilis; hemihydrate): 50 PPM
MIC (Salmonella typhosa): 50 µg/mL
Minimum inhibitory concentration, Sa (Staphylococcus aureus; hemihydrate): 10 PPM
Acid Inhibition (minimum concentration which prevented acid formation) (Streptococcus mutans [3]; hemihydrate): 0.1 ppm
MBC (minimum bactericidal concentration) [2, 9]: 0.5 ppm
MIC [2, 9]: 2.0 ppm
MIC ([4]; read-out: Minimum inhibitory concentration, Tm): 500 µg/mL
MIC (Proteus mirabilis): 100 µg/mL
MIC (Escherichia coli): 50 µg/mL

COC(=O)c1ccc2c(c1)[I+]c1cc(C(=O)O)ccc1O2 [3(c)]
Minimum inhibitory concentration, Bs (Bacillus subtilis): 0.5 PPM
Minimum inhibitory concentration, Cp (Candida pelliculosa): 500 PPM
Minimum inhibitory concentration, St (Salmonella typhosa): 5 PPM
Minimum inhibitory concentration, Af (Aspergillus fumigatus): 100 PPM
Minimum inhibitory concentration, An (Aspergillus niger): 500 PPM
Minimum inhibitory concentration, Sa (Staphylococcus aureus): 1.0 PPM
Minimum inhibitory concentration, Sm (Streptococcus mutans [1]): 500 PPM
Acid Inhibition (minimum concentration which prevented acid formation) (Streptococcus mutans [3]): 1.0 ppm
MBC (minimum bactericidal concentration) [2, 5]: 2.0 ppm
MIC [2, 5]: 1.0 ppm
Minimum inhibitory concentration, Tm [4]: 100 PPM
Minimum inhibitory concentration, Pm (Proteus mirabilis): 5 PPM
Minimum inhibitory concentration, Ec (Escherichia coli): 5 PPM

CC(=O)c1ccc2c(c1)[I+]c1cc(C(C)=O)ccc1O2 [1(c), 3,7-diacetylphenoxiodinin-5-ium bisulfite hemihydrate]
Minimum inhibitory concentration, Bs (Bacillus subtilis; hemihydrate): 1.0 PPM
Minimum inhibitory concentration, St (Salmonella typhosa; hemihydrate): 5 PPM
Acid Inhibition (minimum concentration which prevented acid formation) (Streptococcus mutans [3]; hemihydrate): 0.5 ppm
MBC (minimum bactericidal concentration) [2, 9]: 8.0 ppm
MIC [2, 9]: 1.0 ppm
Minimum inhibitory concentration, Tm ([4]; hemihydrate): 100 PPM
Minimum inhibitory concentration, Pm (Proteus mirabilis; hemihydrate): 50 PPM
Minimum inhibitory concentration, Ec (Escherichia coli; hemihydrate): 10 PPM

O=C(c1ccc2c(c1)[I+]c1cc(C(=O)C34CC5CC(CC(C5)C3)C4)ccc1O2)C12CC3CC(CC(C3)C1)C2 (single isomer, unassigned) [5(a)]
Minimum inhibitory concentration, Sa (Staphylococcus aureus): 12.5 PPM
Minimum inhibitory concentration, Sm (Streptococcus mutans [1]): 3.12 PPM
MIC [2, 5]: 3.12 ppm
MBC [2, 7]: 3.12 µg/mL

O=C(O)c1ccc2c(c1)[I+]c1cc(C(=O)O)ccc1O2 [6(a)]
MIC (Bacillus subtilis): 0.5 µg/mL
MIC (Salmonella typhosa): 10 µg/mL
MIC (Staphylococcus aureus): 1 µg/mL
MIC (Streptococcus mutans [1]): 500 µg/mL
minimal effective concentration (Streptococcus mutans [3]): 3.9 µg/mL
MBC [2, 7]: 3.9 µg/mL
MIC [2, 8]: 3.9 µg/mL
MIC (Proteus mirabilis): 50 µg/mL
MIC (Escherichia coli): 5 µg/mL

CNS(=O)(=O)c1ccc2c(c1)[I+]c1cc(S(=O)(=O)NC)ccc1O2 [7(b), 3,7-Bis(methylaminosulfonyl)phenoxiodinin-5-ium chloride]
MIC (Salmonella typhosa): 500 µg/mL
MIC (Aspergillus niger): 500 µg/mL
MIC (Streptococcus mutans [1]): 500 µg/mL
MIC (Escherichia coli): 500 µg/mL

CC(=O)c1ccc2c(c1)[I+]c1cc(C(C)=O)ccc1O2 [1(b), 3,7-diacetylphenoxiodinin-5-ium bromide monohydrate]
Minimum inhibitory concentration, Bs (Bacillus subtilis; monohydrate): 5 PPM
Minimum inhibitory concentration, St (Salmonella typhosa; monohydrate): 10 PPM
Acid Inhibition (minimum concentration which prevented acid formation) (Streptococcus mutans [3]; monohydrate): 0.1 ppm
MBC (minimum bactericidal concentration) [2, 6]: 0.5 ppm
MIC [2, 6]: 0.1 ppm
Minimum inhibitory concentration, Tm ([4]; monohydrate): 100 PPM
Minimum inhibitory concentration, Pm (Proteus mirabilis; monohydrate): 500 PPM
Minimum inhibitory concentration, Ec (Escherichia coli; monohydrate): 50 PPM

CC(=O)c1ccc2c(c1)[I+]c1cc(C(C)=O)ccc1O2 [1(a), 3,7-Diacetylphenoxiodinin-5-ium chloride dihydrate]
Minimum inhibitory concentration, Bs (Bacillus subtilis; dihydrate): 5 PPM
MIC (Salmonella typhosa): 10 µg/mL
MIC (Aspergillus fumigatus): 500 µg/mL
MIC (Staphylococcus aureus): 5 µg/mL
Acid Inhibition (minimum concentration which prevented acid formation) (Streptococcus mutans [3]; dihydrate): 0.12 ppm
MBC (minimum bactericidal concentration) [2, 10]: 0.98 ppm
MIC [2, 10]: 0.49 ppm
Minimum inhibitory concentration, Tm ([4]; dihydrate): 500 PPM
Minimum inhibitory concentration, Pm (Proteus mirabilis; dihydrate): 100 PPM
Minimum inhibitory concentration, Ec (Escherichia coli; dihydrate): 50 PPM

COC(=O)c1ccc2c(c1)[I+]c1cc(C(=O)O)ccc1O2 [3(a), 3-Carboxy-7-(methoxycarbonyl)phenoxiodinin-5-ium chloride monohydrate]
MIC (Bacillus subtilis): 1 µg/mL
MIC (Candida pelliculosa; Hansenula anomala, read-out: Minimum inhibitory concentration, Cp): 500 µg/mL
MIC (Salmonella typhosa): 10 µg/mL
MIC (Aspergillus fumigatus): 50 µg/mL
MIC (Aspergillus niger): 500 µg/mL
Minimum inhibitory concentration, Sa (Staphylococcus aureus; monohydrate): 5 PPM
Minimum inhibitory concentration, Sm (Streptococcus mutans [1]; monohydrate): 500 PPM
minimal effective concentration (Streptococcus mutans [3]): 1 µg/mL
MBC [2, 7]: 2 µg/mL
MIC [2, 8]: 2 µg/mL
Minimum inhibitory concentration, Tm ([4]; monohydrate): 500 PPM
MIC (Proteus mirabilis): 10 µg/mL
MIC (Escherichia coli): 10 µg/mL
